Measured values as given in patent publication US20160200847A1, “CLICKABLE POLYMERS AND GELS FOR MICROARRAY AND OTHER APPLICATIONS” (priority 2014, published 2016).

Target: T1, Concanavalin A (ConA) (Canavalia ensiformis, UniProt P02866)
T1 construct: purchased Sigma Aldrich
Experiment: Glycan microarray incubated with biotinylated ConA, Cy3-streptavidin fluorescence detection
Type: binding
Details: spotted at 50 μM; 100 ng/ml (0.943 nM) biotinylated ConA; Cy3-labelled streptavidin
Protocol: Four hundreds pL of each glycan was spotted at 10 μM or 50 μM concentration from an aqueous solution of […] (2.5 mM) and ascorbic acid (12.5 mM). A α-mannoside (10) and β-galactoside (11) were used as positive and negative controls. The immobilization reaction took place during an overnight incubation in a humid chamber at room temperature. The printed slides were sequentially washed with PBS buffer for 10 minutes with DI water and dried by a nitrogen stream. The arrayed slides were then incubated with biotinylated α-mannose-binding lectin Concanavalin A (ConA) in the lectin binding buffer (LBB, 50 mM HEPES, pH 7.4, 5 mM MnCl2, 5 mM CaCl2) in the presence of BSA (0.2 mg/ml). […] A final incubation of 1 h with 2 μg/ml Cyanine3 labelled Streptavidin in PBS (Phosphate Saline Buffer) in a humid chamber at room temperature under static condition enabled the fluorescence detection of the surface bound ConA by means of a scanner (ProScanArray scanner from Perkin Elmer, Boston, Mass., USA) used at 70% of laser power and 60% of photomultiplier (PMT) gain (FIG. 2b). The fluorescence intensities of 11 spot replicates were confirmed by three experiments that provided the same fluorescence intensities for each glycomimetic, with a standard deviation lower than 5%. […]
The graph (b) of FIG. 2 reports the fluorescence intensity observed for different glycan spots. […]

Structure (SMILES): OC[C@H]1O[C@@H](O)[C@H](O)[C@@H](O)[C@H]1O [Glycomimetic 11, β-galactose]
- interaction with ConA (spot fluorescence intensity, qualitative): lack of fluorescence
